SMILES	melting point
O=C1CCS(=O)(=O)C(c2ccccc2)N1c1ccccc1 (centres unmarked) [Example 2a, 2,3-diphenyl-2,3,5,6-tetrahydro-4H-1,3-thiazin-4-one 1,1-dioxide]	145 to 148 °C
O=C1CC2(CC2)CS(=O)(=O)C(c2ccccc2)N1c1ccccc1 (centres unmarked) [Example 2e, 6,7-diphenyl-5?^6-thia-7-azaspiro[2.6]nonane-5,5,8-trione]	186.6 to 187.7 °C (dec.)
CC(=O)N[C@H]1C[S@+]([O-])[C@@H](c2ccccc2)N(c2ccccc2)C1=O [Example 1b, N-[(1S,2S,5R)-1,4-dioxo-2,3-diphenyl-1λ^4,3-thiazinan-5-yl]acetamide]	176 to 179 °C
CC(=O)N[C@H]1CS(=O)(=O)[C@@H](c2ccccc2)N(c2ccccc2)C1=O [Example 2b, N-[(2S,5R)-1,1,4-trioxo-2,3-diphenyl-1λ^6,3-thiazinan-5-yl]acetamide]	170 to 194 °C (dec.)
O=C1c2cccnc2[S+]([O-])C(c2ccccc2)N1c1ccccc1 (centres unmarked) [Example 1d, 2,3-diphenyl-2,3-dihydro-4H-pyrido[3,2-e]-[1,3]thiazin-4-one 1-oxide]	177 to 179 °C
O=C1CC2(CC2)C[S+]([O-])C(c2ccccc2)N1c1ccccc1 (centres unmarked) [Example 1e, 6,7-diphenyl-5λ^4-thia-7-azaspiro[2.6]nonane-5,8-dione]	193 to 194 °C
O=C1c2ccccc2[S+]([O-])C(c2ccccc2)N1c1ccccc1 (centres unmarked) [Example 1c, 2,3-diphenyl-2,3-dihydro-4H-1,3-benzothiazin-4-one 1-oxide]	208 to 209 °C
O=C1c2ccccc2S(=O)(=O)C(c2ccccc2)N1c1ccccc1 (centres unmarked) [Example 2c, 2,3-diphenyl-2,3-dihydro-4H-1,3-benzothiazin-4-one 1,1-dioxide]	163 to 165 °C

Reference: patent US20220259165A1, “S-OXIDES OF 2,3-DIARYL-2,3-DIHYDRO-4H-1,3-THIAZIN-4-ONES AND 2,3-DIARYL-1,3-THIAZEPAN-4-ONES AND METHODS FOR MAKING” (The Penn State Research Foundation, priority 2019, published 2022)
